Measured values reported in patent US20240050408A1, “USE OF MGLUR5 ANTAGONISTS FOR TREATING AMPHETAMINE ADDICTION” (NOVARTIS AG, priority 2020, published 2024).

What was measured:
[1] = test system: patients with Cocaine Use Disorder (CUD); assay: Phase 2 trial: proportion of cocaine use days by TLFB self-report; type: in vivo, human; settings: for difference between groups in monthly proportion of cocaine use: MMRM
Description: This was a Phase 2 randomized, patient- and investigator-blinded, placebo-controlled, parallel-group study.
Patients diagnosed with Cocaine Use Disorder (CUD) according to Diagnostic and Statistical Manual of Mental Disorders, 5th Ed.
(§1) This study was conducted in patients with CUD and consisted of about a 21-day screening period followed by a 7-day baseline period, a 98-day outpatient treatment period, and an end of study visit evaluation about 14 days after the last study drug administration ([…]. A). Study treatment was taken twice daily (separated by about 12-hour intervals) with food. For patients in the mavoglurant arm [mavoglurant (free form) provided as modified release formulation (e.g. in WO2014/199316)], an uptitration regimen was performed for 14 days (50 mg b.i.d. from Days 1 to 7 and 100 mg b.i.d from Days 8 to 14) and was followed by 200 mg b.i.d for 84 days.
The primary endpoint was the proportion of cocaine use days during the treatment period, assessed by timeline followback [TLFB] cocaine self-report report. The secondary endpoints included a weekly urine analysis for a log-transformed quantitative measure of cocaine metabolite benzoylecgonine (BE), safety assessments (clinical parameters, suicidal ideation, adverse events [AE] and serious adverse events [SAE] at every visit), and pre- and post-dose levels of mavoglurant in the plasma. Exploratory endpoints included Clinical Global Impression (CGI; 2 components: CGI-S [rated illness severity], CGI-I [rated change from baseline]).
For the primary endpoint, a Bayesian analysis was conducted on the proportion of cocaine use days. It was assumed to be a continuous outcome with a normal distribution. The proportion of cocaine use days over the treatment period was analyzed using an analysis of covariance (ANCOVA) model with baseline use as a covariate. The profiles of consumption over time were compared between treatment groups through analyses of longitudinal data (weekly use and monthly use) using linear mixed model for repeated measures (MMRM). The model evaluated the posterior probability that the difference in proportions of cocaine use days between mavoglurant and placebo was <0 and that it was <−10%. A difference of 10% of days was deemed the minimal clinically relevant effect and a difference of 20% would be a very promising effect based on the literature in this indication. The study was deemed to show a positive signal of efficacy if the following two proof of concept (PoC) criteria were met:
The primary endpoint was the proportion of cocaine use days by TLFB during the treatment period (Day 1 to last day of treatment). For each subject, the proportion of cocaine use days was calculated by dividing the number of days of cocaine use during the treatment period with the treatment period, i.e., 98 days for completers and number of days between Day 1 and day of last dose in case of premature discontinuation of study treatment. Cocaine consumption was recorded daily (Yes/No) using the TLFB during the entire study.
Patient Reported Outcome included: • 1. The TLFB cocaine: is a cocaine assessment method that obtains estimates of daily cocaine intake and has been evaluated with clinical and nonclinical populations. Using a calendar, people provide retrospective estimates of their daily cocaine use over a specified time period that can vary up to 12 months from the interview date. Several memory aids can be used to enhance recall (e.g., calendar; key dates serve as anchors for reporting cocaine use). […] The method is recommended for use when relatively precise estimates of cocaine use are necessary, especially when a complete use pre-posttreatment). Clinically, the TLFB can be used to provide feedback about one's cocaine consumption in an effort to increase a client's motivation to change. • 2. […]

[2] = test system: patients with Cocaine Use Disorder (CUD); assay: Phase 2 trial: anxiety (STAI) and depressive symptoms (BDI-II); type: in vivo, human; settings: for anxiety symptoms by STAI: difference vs placebo not statistically significant (P=0.144 S-Anxiety, P=0.425 T-Anxiety); for depressive symptoms by BDI: difference vs placebo not statistically significant (P=0.696 BDI-II)
Description: as §1
Patient Reported Outcome included: • 1. The TLFB cocaine: is a cocaine assessment method that obtains estimates of daily cocaine intake and has been evaluated with clinical and nonclinical populations. Using a calendar, people provide retrospective estimates of their daily cocaine use over a specified time period that can vary up to 12 months from the interview date. Several memory aids can be used to enhance recall (e.g., calendar; key dates serve as anchors for reporting cocaine use). […] The method is recommended for use when relatively precise estimates of cocaine use are necessary, especially when a complete use pre-posttreatment). Clinically, the TLFB can be used to provide feedback about one's cocaine consumption in an effort to increase a client's motivation to change. • 2. The TLFB alcohol: is a drinking assessment method that obtains estimates of daily drinking and has been evaluated with clinical and nonclinical populations. Using a calendar, people provide retrospective estimates of their daily drinking over a specified time period that can vary up to 12 months from the interview date. Several memory aids can be used to enhance recall (e.g., calendar; key dates serve as anchors for reporting drinking; standard drink conversion). […] The method is recommended for use when relatively precise estimates of drinking are necessary, especially when a complete picture of drinking days (i.e., high- and low-risk days) is needed (evaluating drinking pre/post-treatment). Clinically, the TLFB can be used to provide feedback about one's drinking in an effort to increase a client's motivation to change. Overall, the Alcohol TLFB method provides a relatively accurate portrayal of drinking, and has both clinical and research utility. • 3. The BDI-II: is instrument endorsed by the National Institute for Health and Clinical Excellence for use in primary care in measuring baseline depression severity and responsiveness to treatment. • 4. The STAI: is an assessment tool for measuring the presence and severity of current symptoms of anxiety and a generalized propensity to be anxious. […]

SMILES: COC(=O)N1CC[C@@H]2[C@H]1CCC[C@@]2(O)C#Cc1cccc(C)c1 [mavoglurant, (-)-(3aR,4S,7aR)-4-Hydroxy-4-m-tolylethynyl-octahydro-indole-1-carboxylic acid methyl ester]
- cocaine use by TLFB, difference mavoglurant-placebo (result in words) ([1]; 98-day administration, P=0.021, listed as Mavoglurant): reduced cocaine consumption significantly
- P(θmavoglurant−θplacebo<0|data), PoC criterion 1 ([1]; Bayesian analysis over the treatment period (14 weeks), criterion met (P>0.90)): 0.999
- P(θmavoglurant−θplacebo<−10%|data), PoC criterion 2 ([1]; Bayesian analysis over the treatment period (14 weeks), criterion not met (P<0.50)): 0.366
- difference between groups in monthly proportion of cocaine use ([1]; Month 2, P=0.042): 8%
- difference between groups in monthly proportion of cocaine use ([1]; Month 3, P=0.003): 14%
- posterior probability in reducing cocaine use, treatments difference <0 ([1]; cocaine TLFB, 98-day administration (50/100 mg b.i.d. uptitration, then 200 mg b.i.d. 84 days, modified release), mavoglurant vs placebo, Bayesian analysis): 99.0%
- posterior probability in reducing cocaine use, treatments difference <−10% ([1]; cocaine TLFB, 98-day administration, mavoglurant vs placebo, Bayesian analysis): 36.6%
- difference between groups in proportion of cocaine use days ([1]; over the treatment period (14 weeks), mavoglurant vs placebo): 8.7%
- observed difference between mavoglurant and placebo in proportion of cocaine use days ([1]; over the treatment period, FIG. 2B): −0.087
- anxiety symptoms by STAI [2]: reduced nonsignificantly
- anxiety symptoms by STAI ([2]; listed as Mavoglurant): reduced anxiety and depressive symptoms
- depressive symptoms by BDI [2]: reduced nonsignificantly
- depressive symptoms by BDI ([2]; listed as Mavoglurant): reduced anxiety and depressive symptoms
